Source: US6469034B1, “Cyclohexenyl-ethyl-thiourea compounds for inhibiting HIV reverse transcriptase” (Parker Hughes Institute, priority 1999, dated 2002)

Target: T1, purified recombinant HIV RT (Human immunodeficiency virus type 1 group M subtype B, UniProt P03366)
T1 construct: Addition of 10 mU of recombinant HIV RT
Assay: Purified RT assay, cell-free Quan-T-RT scintillation proximity assay
Format: biochemical
Conditions: not given
Description: In the assay, a DNA/RNA template is bound to SPA beads via a biotin/strepavidin linkage. The primer DNA is a 16-mer oligo(T) which has been annealed to a poly(A) template. The primer/template is bound to a strepavidin-coated SPA bead.
^3H-TTP is incorporated into the primer by reverse transcription. […] The compound being tested was added to the reaction mixture at 0.001 μM-100 μM concentrations. […] The reaction was stopped by addition of 0.2 ml of 120 mM EDTA. The samples were counted in an open window using a Beckman LS 7600 instrument and IC50 values were calculated by comparing the measurements to untreated samples.
With S=C(NCCC1=CCCCC1)Nc1ccc(Br)cn1 [HI-346, N-[2-(5-Bromopyridinyl)]-N′-[2-(1-Cyclohexenyl)ethyl]thiourea] the IC50 was 400 nM. Molecule FC(F)(F)c1ccc(NC(=S)NCCC2=CCCCC2)nc1 [HI-347, N-[2-(5-Trifluoromethylpyridinyl)]-N′-[2-(1-Cyclohexenyl)ethyl]thiourea] has an IC50 of 4000 nM. S=C(NCCC1=CCCCC1)Nc1ccc(Cl)cn1 [HI-445, N-[2-(5-Chloropyridinyl)]-N′-[2-(1-Cyclohexenyl)ethyl]thiourea] gave an IC50 of 500 nM.

Same assay, conditions: recombinant HIV RT, 37° C., 1 hour; read-out: IC50 rRT
In the case of CCOCn1c(Cc2ccccc2)c(C(C)C)c(=O)[nH]c1=O [MKC-442, reference compound], the IC50 is reported as 800 nM. In the case of S=C(NCCC1C2CC3CC(C2)CC1C3)Nc1ccc(Br)cn1 (stereo not shown) [HI-504, N-[2-(5-Bromopyridinyl)]-N′-[2-(2-Adamantyl)]thiourea], the IC50 is reported as over 100000 nM.

System: multidrug resistant HIV-1 strain RT-MDR
Assay: microbe, parasite or virus in culture
Format: cell-based
Conditions: Human immunodeficiency virus 1, PBMC, 168 h, read-out: IC50 RT-MDR
Description: (§1) In addition, the anti-HIV activity of the compounds was measured by determining their ability to inhibit the replication of the HIV-1 strains HTLVIIIB, RT-MDR, A17, and A17 variant in peripheral blood mononuclear cells (PBMC) from healthy volunteer donors, using the method described in Uckun et.al., 1998, Antimicrobial Agents and Chemotherapy 42:383.
(§2) Normal human peripheral blood mononuclear cells (PBMNC) from HIV-negative donors were cultured 72 hours in RPMI 1640 supplemented with 20% (v/v) heat-inactivated fetal bovine serum (FBS), 3% interleukin-2,2 mM L-glutairine, 25 mM HEPES, 2 μL, NAHCO, […] gentamicin, and 4 μg/mL phytohemagglutinin prior to exposure to HIV-1 or other HIV strain at a multiplicity of infection (MOI) of 0.1 during a one-hour adsorption period at 37° C. in a humidified 5% CO2 atmosphere. Subsequently, cells were cultured in 96-well microplates (100 μL/well; 2×10^6 cells/mL, triplicate wells) in the presence of various inhibitor concentrations. Aliquots of culture supernatants were removed from the wells on the 7th day after infection for p24 antigen p24 enzyme immunoassays (EIA), as previously described in Erice et al., 1993, Antimicrob. Ag. Chemotherapy 37:385-838. The applied p24 EIA was the unmodified kinetic assay commercially available from Coulter Corporation/Immunotech, Inc. (Westbrook, Me.). Percent inhibition of viral replication was calculated by comparing the p24 values from the test substance-treated infected cells with p24 values from untreated infected cells (i.e, virus controls).
(§3) RT-MDR was obtained through the AIDS Research and Reference Reagent Program, from Dr. Bendan Larder, and is described in Larder et al., 1993, Nature, 365, 451-453.
Molecule S=C(NCCC1=CCCCC1)Nc1ccc(Br)cn1 [HI-346, N-[2-(5-Bromopyridinyl)]-N′-[2-(1-Cyclohexenyl)ethyl]thiourea] has an IC50 of 1 nM. Work on CCOCn1c(Cc2ccccc2)c(C(C)C)c(=O)[nH]c1=O [MKC-442, reference compound] yielded an IC50 of 300 nM. Work on FC(F)(F)c1ccc(NC(=S)NCCC2=CCCCC2)nc1 [HI-347, N-[2-(5-Trifluoromethylpyridinyl)]-N′-[2-(1-Cyclohexenyl)ethyl]thiourea] yielded an IC50 of 38 nM. With S=C(NCCC1=CCCCC1)Nc1ccc(Cl)cn1 [HI-445, N-[2-(5-Chloropyridinyl)]-N′-[2-(1-Cyclohexenyl)ethyl]thiourea] the IC50 was 1 nM.

Same assay, conditions: Human immunodeficiency virus 1, PBMC, read-out: IC50 against RT-MDR
In the case of S=C(NCCC1=CCCCC1)Nc1ccc(Br)cn1 [HI-346, N-[2-(5-Bromopyridinyl)]-N′-[2-(1-Cyclohexenyl)ethyl]thiourea], the IC50 is reported as 1 nM. CCOCn1c(Cc2ccccc2)c(C(C)C)c(=O)[nH]c1=O [MKC-442, reference compound] showed an IC50 of 300 nM. Work on S=C(NCCC1=CCCCC1)Nc1ccc(Cl)cn1 [HI-445, N-[2-(5-Chloropyridinyl)]-N′-[2-(1-Cyclohexenyl)ethyl]thiourea] yielded an IC50 of 1 nM.

Same assay, conditions: ratio RT-MDR vs HTLVIIIB
With S=C(NCCC1=CCCCC1)Nc1ccc(Br)cn1 [HI-346, N-[2-(5-Bromopyridinyl)]-N′-[2-(1-Cyclohexenyl)ethyl]thiourea] the “times more effective against RT-MDR than against HTLVIIIB” value was 3 times. With S=C(NCCC1=CCCCC1)Nc1ccc(Cl)cn1 [HI-445, N-[2-(5-Chloropyridinyl)]-N′-[2-(1-Cyclohexenyl)ethyl]thiourea] the “times more effective against RT-MDR than against HTLVIIIB” value was 3 times.

Same assay, conditions: vs AZT
With S=C(NCCC1=CCCCC1)Nc1ccc(Br)cn1 [HI-346, N-[2-(5-Bromopyridinyl)]-N′-[2-(1-Cyclohexenyl)ethyl]thiourea] the “times more potent than AZT against RT-MDR” value was 200 times. In the case of S=C(NCCC1=CCCCC1)Nc1ccc(Cl)cn1 [HI-445, N-[2-(5-Chloropyridinyl)]-N′-[2-(1-Cyclohexenyl)ethyl]thiourea], the “times more potent than AZT against RT-MDR” value is reported as 200 times.

Same assay, conditions: vs MKC-442
With S=C(NCCC1=CCCCC1)Nc1ccc(Br)cn1 [HI-346, N-[2-(5-Bromopyridinyl)]-N′-[2-(1-Cyclohexenyl)ethyl]thiourea] the “times more potent than MKC-442 against RT-MDR” value was 300 times. In the case of S=C(NCCC1=CCCCC1)Nc1ccc(Cl)cn1 [HI-445, N-[2-(5-Chloropyridinyl)]-N′-[2-(1-Cyclohexenyl)ethyl]thiourea], the “times more potent than MKC-442 against RT-MDR” value is reported as 300 times.

Same assay, conditions: vs delavirdine
For S=C(NCCC1=CCCCC1)Nc1ccc(Br)cn1 [HI-346, N-[2-(5-Bromopyridinyl)]-N′-[2-(1-Cyclohexenyl)ethyl]thiourea], the “times more potent than delavirdine against RT-MDR” value was 400 times. In the case of S=C(NCCC1=CCCCC1)Nc1ccc(Cl)cn1 [HI-445, N-[2-(5-Chloropyridinyl)]-N′-[2-(1-Cyclohexenyl)ethyl]thiourea], the “times more potent than delavirdine against RT-MDR” value is reported as 400 times.

Same assay, conditions: vs nevirapine
With S=C(NCCC1=CCCCC1)Nc1ccc(Br)cn1 [HI-346, N-[2-(5-Bromopyridinyl)]-N′-[2-(1-Cyclohexenyl)ethyl]thiourea] the “times more potent than nevirapine against RT-MDR” value was 5000 times. In the case of S=C(NCCC1=CCCCC1)Nc1ccc(Cl)cn1 [HI-445, N-[2-(5-Chloropyridinyl)]-N′-[2-(1-Cyclohexenyl)ethyl]thiourea], the “times more potent than nevirapine against RT-MDR” value is reported as 5000 times.

Same assay, conditions: vs trovirdine
In the case of S=C(NCCC1=CCCCC1)Nc1ccc(Br)cn1 [HI-346, N-[2-(5-Bromopyridinyl)]-N′-[2-(1-Cyclohexenyl)ethyl]thiourea], the “times more potent than trovirdine against RT-MDR” value is reported as 20 times. With S=C(NCCC1=CCCCC1)Nc1ccc(Cl)cn1 [HI-445, N-[2-(5-Chloropyridinyl)]-N′-[2-(1-Cyclohexenyl)ethyl]thiourea] the “times more potent than trovirdine against RT-MDR” value was 20 times.

System: not listed separately
Assay: Microculture tetrazolium assay (MTA, XTT) for cytotoxicity
Format: cell-based
Conditions: cytotoxicity, XTT
For S=C(NCCC1=CCCCC1)Nc1ccc(Br)cn1 [HI-346, N-[2-(5-Bromopyridinyl)]-N′-[2-(1-Cyclohexenyl)ethyl]thiourea], the CC50 was over 100000 nM. For CCOCn1c(Cc2ccccc2)c(C(C)C)c(=O)[nH]c1=O [MKC-442, reference compound], the CC50 was over 100000 nM. With FC(F)(F)c1ccc(NC(=S)NCCC2=CCCCC2)nc1 [HI-347, N-[2-(5-Trifluoromethylpyridinyl)]-N′-[2-(1-Cyclohexenyl)ethyl]thiourea] the CC50 was over 100000 nM. For S=C(NCCC1=CCCCC1)Nc1ccc(Cl)cn1 [HI-445, N-[2-(5-Chloropyridinyl)]-N′-[2-(1-Cyclohexenyl)ethyl]thiourea], the CC50 was over 100000 nM.

Same assay, conditions: in words
In the case of S=C(NCCC1=CCCCC1)Nc1ccc(Br)cn1 [HI-346, N-[2-(5-Bromopyridinyl)]-N′-[2-(1-Cyclohexenyl)ethyl]thiourea], the “toxicity at effective concentrations” value is reported as “Neither compound exhibited significant toxicity”. For S=C(NCCC1=CCCCC1)Nc1ccc(Cl)cn1 [HI-445, N-[2-(5-Chloropyridinyl)]-N′-[2-(1-Cyclohexenyl)ethyl]thiourea], the “toxicity at effective concentrations” value was “Neither compound exhibited significant toxicity”.

System: RT Y181C mutant A17 strain
Assay: microbe, parasite or virus in culture
Format: cell-based, HIV-1
Conditions: Human immunodeficiency virus 1, PBMC, 168 h, read-out: IC50 A17
Description: as §1, §2, §3
In the case of FC(F)(F)c1ccc(NC(=S)NCCC2=CCCCC2)nc1 [HI-347, N-[2-(5-Trifluoromethylpyridinyl)]-N′-[2-(1-Cyclohexenyl)ethyl]thiourea], the IC50 is reported as 300 nM. With S=C(NCCC1=CCCCC1)Nc1ccc(Cl)cn1 [HI-445, N-[2-(5-Chloropyridinyl)]-N′-[2-(1-Cyclohexenyl)ethyl]thiourea] the IC50 was 68 nM.

Same assay, conditions: vs nevirapine or delavirdine
For S=C(NCCC1=CCCCC1)Nc1ccc(Cl)cn1 [HI-445, N-[2-(5-Chloropyridinyl)]-N′-[2-(1-Cyclohexenyl)ethyl]thiourea], the “fold more effective than nevirapine or delavirdine against A17” value was > 1,400 fold.

Same assay, conditions: vs trovirdine
In the case of S=C(NCCC1=CCCCC1)Nc1ccc(Cl)cn1 [HI-445, N-[2-(5-Chloropyridinyl)]-N′-[2-(1-Cyclohexenyl)ethyl]thiourea], the “fold more effective than trovirdine against A17” value is reported as over 7 fold.

System: A17 variant with both Y181C and K103N mutations in RT
Assay: microbe, parasite or virus in culture
Format: cell-based, HIV-1
Conditions: Human immunodeficiency virus 1, PBMC, 168 h, read-out: IC50 A17 variant
Description: as §1, §2, §3
With S=C(NCCC1=CCCCC1)Nc1ccc(Br)cn1 [HI-346, N-[2-(5-Bromopyridinyl)]-N′-[2-(1-Cyclohexenyl)ethyl]thiourea] the IC50 was 18700 nM. In the case of FC(F)(F)c1ccc(NC(=S)NCCC2=CCCCC2)nc1 [HI-347, N-[2-(5-Trifluoromethylpyridinyl)]-N′-[2-(1-Cyclohexenyl)ethyl]thiourea], the IC50 is reported as over 100000 nM. In the case of S=C(NCCC1=CCCCC1)Nc1ccc(Cl)cn1 [HI-445, N-[2-(5-Chloropyridinyl)]-N′-[2-(1-Cyclohexenyl)ethyl]thiourea], the IC50 is reported as 30000 nM.

System: HIV-1 strain HTLVIIIB
Assay: Inhibition of HIV p24 antigen production in PBMC, strain HTLVIIIB
Format: cell-based
Conditions: Human immunodeficiency virus 1, PBMC, 168 h, read-out: IC50 HTLVIIIB
Description: as §1, §2, §3
In the case of S=C(NCCC1=CCCCC1)Nc1ccc(Br)cn1 [HI-346, N-[2-(5-Bromopyridinyl)]-N′-[2-(1-Cyclohexenyl)ethyl]thiourea], the IC50 is reported as 3 nM. For FC(F)(F)c1ccc(NC(=S)NCCC2=CCCCC2)nc1 [HI-347, N-[2-(5-Trifluoromethylpyridinyl)]-N′-[2-(1-Cyclohexenyl)ethyl]thiourea], the IC50 was 79 nM. S=C(NCCC1=CCCCC1)Nc1ccc(Cl)cn1 [HI-445, N-[2-(5-Chloropyridinyl)]-N′-[2-(1-Cyclohexenyl)ethyl]thiourea] showed an IC50 of 3 nM.

System: not given
Assay: not given
Conditions: not given
For S=C(NCCC1=CCCCC1)Nc1ccc(Br)cn1 [HI-346, N-[2-(5-Bromopyridinyl)]-N′-[2-(1-Cyclohexenyl)ethyl]thiourea], the melting point was 172 to 173 °C. With FC(F)(F)c1ccc(NC(=S)NCCC2=CCCCC2)nc1 [HI-347, N-[2-(5-Trifluoromethylpyridinyl)]-N′-[2-(1-Cyclohexenyl)ethyl]thiourea] the melting point was 161 to 162 °C. S=C(NCCC1=CCCCC1)Nc1ccc(Cl)cn1 [HI-445, N-[2-(5-Chloropyridinyl)]-N′-[2-(1-Cyclohexenyl)ethyl]thiourea] gave a melting point of 165 °C.
